# Results as given in patent publication US12492197B2, “3,5-disubstituted pyrazole compounds as kinase inhibitors and uses thereof” (IMPACT THERAPEUTICS (SHANGHAI), INC, priority 2019, dated 2025).
# Experiments:
# [1] = tested on: human breast cancer cell HCC1806; test: Proliferation of HCC1806 cells, MTT assay; format: cell-based; settings: HCC1806, 72 h, 3 days treatment, read-out: IC50 (inhibition of proliferation of HCC1806)
# Experimental: Newly revived HCC1806 cells (purchased from Guangzhou Genio) were cultured and passaged for at least three generations before use. Cells were used at 90% confluency for experiments. Cells were digested with trypsinase and centrifuged at 800 rpm for 5 minutes. The cell pellets were resuspended in fresh RPMI1640 medium and cells were counted. Cells were seeded on 96-well cell culture plates at 2000 cells/well and incubated overnight at 37° C., 5% CO2. The stock solutions of the test substances (including the test compounds and the reference compound) were serially diluted to 8 concentrations with DMSO at a ratio of 1:3. Five μL of each of the serially diluted solutions were added to 120 μL of medium (diluted by 25 times) and mixed by shaking. […] The cell culture plates were returned to incubator at 37° C., 5% CO2 for 3 days. At the end of treatment the cell viability was determined by MTT colorimetric assay. Cell culture medium in each well was replaced by 100 μL/well of serum-free fresh medium containing MTT (0.5 mg/mL), and the culture was continued for additional 4 hours.
# (§1) Data was analyzed by GraphPad Prism 6.0. The inhibitory effects of compounds on cell proliferation were plotted based on cell viability vs. the logarithm of compound concentration. Cell viability %=(ODcompound−ODbackground)/(ODDMSO−ODbackground)×100.
# CHK1 kinase = molecular target: T1, CHK1 kinase (Homo sapiens, UniProt O14757); test: CHK1 kinase inhibition, ADP-Glo kinase assay; format: biochemical; settings: ATP 10 μM, CHK1 1 ng/well; for IC50: read-out: IC50 (inhibitory effect on CHK1 kinase activity); for inhibition at 0.01 µM: compound concentration 10 nM, read-out: Inh % (inhibitory effect on CHK1 kinase activity)
# T1 construct: purchased Promega V1941
# T1 sequence (O14757 1-476): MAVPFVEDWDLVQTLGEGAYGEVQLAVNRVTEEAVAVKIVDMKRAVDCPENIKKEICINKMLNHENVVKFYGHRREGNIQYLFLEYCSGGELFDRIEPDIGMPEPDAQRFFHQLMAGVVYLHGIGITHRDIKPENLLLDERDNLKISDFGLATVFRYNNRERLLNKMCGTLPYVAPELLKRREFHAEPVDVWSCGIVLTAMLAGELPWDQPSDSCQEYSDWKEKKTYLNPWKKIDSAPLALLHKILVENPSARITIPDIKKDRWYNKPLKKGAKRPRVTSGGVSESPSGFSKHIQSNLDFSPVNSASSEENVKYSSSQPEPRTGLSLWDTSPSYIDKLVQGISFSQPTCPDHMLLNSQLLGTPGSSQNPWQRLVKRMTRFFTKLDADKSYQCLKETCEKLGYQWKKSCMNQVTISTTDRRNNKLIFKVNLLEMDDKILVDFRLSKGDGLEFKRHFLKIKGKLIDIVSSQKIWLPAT
# Experimental: 2 μL of kinase CHK1 (#V1941, Promega), 1 μL of compound diluted with buffer, and 2 μL of ATP substrate was successively added to a 384-well plate (final concentration of CHK1 was 1 ng/well, ATP was 10 μM). The positive control wells contained CHK1, ATP and DMSO whereas the negative control wells contained ATP, DMSO without enzyme. The mixtures were centrifuged at 1000 rpm for 1 minute and kept in darkness at room temperature for 1 hour to react. Then, 5 μL of ADP-Glo reagent was added to each well and incubated at room temperature for 40 minutes. At the end of incubation, 10 μL of kinase detection reagent was added to each well, and the relative chemiluminescence values (RLU) were measured on Varioskan® Flash (Thermo). The following calculation was performed: Inhibition rate %=(RLU of positive control−RLU of compound)/(RLU of positive control−RLU of negative control)×100. Data were analyzed using GraphPad Prism6.0 and fitted using the curve equation: Y=Bottom+(Top-Bottom)/(1+10^((Log IC50−X)*HillSlope)), and IC50 values were calculated.
# [2] = tested on: human colon cancer cell LoVo; test: Proliferation of LoVo cells, MTT assay; format: cell-based; settings: 96 h, 4 days treatment, read-out: IC50 (inhibition of proliferation of LoVo)
# Experimental: Newly revived LoVo cells (purchased from Shanghai Cell Institute) were cultured and passaged for at least three generations before use. Cells were used at 90% confluence for experiment. Cells were digested with trypsinase and centrifuged at 800 rpm for 5 minutes and the supernatant was discarded. The cell pellets were resuspended in fresh RPMI1640 medium and counted. Cells were seeded on 96-well cell culture plates at 5000 cells/well and incubated overnight at 37° C., 5% CO2. The stock solutions of the test substances (including the test compounds and the reference compound) were serially diluted to 8 concentrations with DMSO at a ratio of 1:3. 5 μL of each series diluted solutions was added to 120 μL of medium (diluted by 25 times) and mixed by shaking. […] The cell culture plates were returned to incubator at 37° C. and 5% CO2 for 4 days. At the end of treatment, the cell viability was determined by MTT colorimetric assay. Cell culture medium in each well was replaced by 100 μL/well of serum-free DMEM medium containing MTT (0.5 mg/mL), and the culture was continued for additional 4 hours. Medium was then discarded and 100 μL/well of DMSO was added.
# as §1
IC50 [1] [nM],IC50 (CHK1 kinase) [nM],IC50 [2] [nM],inhibition at 0.01 µM (CHK1 kinase) [%],SMILES
4.4,0.85,5.1,–,"COc1cc(Br)cc(OC[C@H]2CCCNC2)c1-c1cc(Nc2cnc(C#N)cn2)n[nH]1 [Example 41, (S)-5-((5-(4-bromo-2-methoxy-6-(piperidin-3-ylmethoxy)phenyl)-1H-pyrazol-3-yl)amino)pyrazine-2-carbonitrile]"
170,–,106,92,"N#Cc1cnc(Nc2cc(-c3c(F)cc(Cl)cc3OC[C@H]3CCCNC3)[nH]n2)cn1 [Example 57, (S)-5-((5-(4-chloro-2-fluoro-6-(piperidin-3-ylmethoxy)phenyl)-1H-pyrazol-3-yl)amino)pyrazine-2-carbonitrile]"
30.5,0.77,28.8,–,"COc1c(F)ccc(OC[C@H]2CCCNC2)c1-c1cc(Nc2cnc(C#N)cn2)n[nH]1 [Example 37, (S)-5-((5-(3-fluoro-2-methoxy-6-(piperidin-3-ylmethoxy)phenyl)-1H-pyrazol-3-yl)amino)pyrazine-2-carbonitrile]"
129,–,83.8,95,"CCc1cnc(Nc2cc(-c3c(OC)cccc3OC[C@H]3CCCNC3)[nH]n2)cn1 [Example 27, (S)-5-ethyl-N-(5-(2-methoxy-6-(piperidin-3-ylmethoxy)phenyl)-1H-pyrazol-3-yl)pyrazin-2-amine]"
> 1000,–,> 1000,4.9,"COc1cccc(OC[C@@H]2CNCCN2C)c1-c1cc(Nc2cnc(C#N)cn2)n[nH]1 [Example 11, (S)-5-((5-(2-methoxy-6-((1-methylpiperazin-2-yl)methoxy)phenyl)-1H-pyrazol-3-yl)amino)pyrazine-2-carbonitrile]"
3.5,0.52,3.2,–,"COc1cc(F)cc(OC[C@H]2CCCNC2)c1-c1cc(Nc2cnc(C#N)cn2)n[nH]1 [Example 38, (S)-5-((5-(4-fluoro-2-methoxy-6-(piperidin-3-ylmethoxy)phenyl)-1H-pyrazol-3-yl)amino)pyrazine-2-carbonitrile]"
6.4,0.38,5.6,–,"COc1cccc(OCC2CNC2)c1-c1cc(Nc2cnc(C#N)cn2)n[nH]1 [Example 31, 5-((5-(2-(azetidin-3-ylmethoxy)-6-methoxyphenyl)-1H-pyrazol-3-yl)amino)pyrazine-2-carbonitrile]"
21.6,1.58,18,–,"Cc1cc(F)c(-c2cc(Nc3cnc(C#N)cn3)n[nH]2)c(OC[C@H]2CCNC2)c1 [Example 62, (S)-5-((5-(2-fluoro-4-methyl-6-(pyrrolidin-3-ylmethoxy)phenyl)-1H-pyrazol-3-yl)amino)pyrazine-2-carbonitrile]"
18.5,1.21,17.8,–,"COc1cccc(OC[C@H]2CNCCS2)c1-c1cc(Nc2cnc(C#N)cn2)n[nH]1 [Example 76-B, (R)-5-((5-(2-methoxy-6-(thiomorpholin-2-ylmethoxy)phenyl)-1H-pyrazol-3-yl)amino)pyrazine-2-carbonitrile]"
52.6,1.66,40.2,–,"Cc1cc(F)c(-c2cc(Nc3cnc(C#N)cn3)n[nH]2)c(OC[C@H]2CCCNC2)c1 [Example 63, (S)-5-((5-(2-fluoro-4-methyl-6-(piperidin-3-ylmethoxy)phenyl)-1H-pyrazol-3-yl)amino)pyrazine-2-carbonitrile]"
118,–,103,93,"COc1cnc(Nc2cc(-c3c(OC)cccc3OC[C@H]3CCCNC3)[nH]n2)cn1 [Example 26, (S)-5-methoxy-N-(5-(2-methoxy-6-(piperidin-3-ylmethoxy)phenyl)-1H-pyrazol-3-yl)pyrazin-2-amine]"

# Second part, the compound before the results:
SMILES,IC50 [1] [nM],IC50 (CHK1 kinase) [nM],IC50 [2] [nM],inhibition at 0.01 µM (CHK1 kinase) [%]
"COc1cc(Cl)cc(OC[C@H]2CCCNC2)c1-c1cc(Nc2cnc(C#N)cn2)n[nH]1 [Example 40, (S)-5-((5-(4-chloro-2-methoxy-6-(piperidin-3-ylmethoxy)phenyl)-1H-pyrazol-3-yl)amino)pyrazine-2-carbonitrile]",5.5,0.88,6.6,–
"COc1c(C)ccc(OC[C@H]2CCCNC2)c1-c1cc(Nc2cnc(C#N)cn2)n[nH]1 [Example 42, (S)-5-((5-(2-methoxy-3-methyl-6-(piperidin-3-ylmethoxy)phenyl)-1H-pyrazol-3-yl)amino)pyrazine-2-carbonitrile]",69.2,–,66.6,85
"COc1cccc(OC[C@H]2CCCNC2)c1-c1cc(Nc2ccc(C#N)cn2)n[nH]1 [Example 24, (S)-6-((5-(2-methoxy-6-(piperidin-3-ylmethoxy)phenyl)-1H-pyrazol-3-yl)amino)nicotinonitrile]",69.2,–,70.8,89
"COc1cc(Cl)cc(OCC2CNC2)c1-c1cc(Nc2cnc(C#N)cn2)n[nH]1 [Example 67, 5-((5-(2-(azetidin-3-ylmethoxy)-4-chloro-6-methoxyphenyl)-1H-pyrazol-3-yl)amino)pyrazine-2-carbonitrile]",8.7,1.72,9.1,–
"COc1cccc(OC[C@@H]2CNCCS2)c1-c1cc(Nc2cnc(C#N)cn2)n[nH]1 [Example 76-A, (S)-5-((5-(2-methoxy-6-(thiomorpholin-2-ylmethoxy)phenyl)-1H-pyrazol-3-yl)amino)pyrazine-2-carbonitrile]",1.4,0.79,2.1,–
"COc1cc(C(F)(F)F)cc(OC[C@@H]2CNCCO2)c1-c1cc(Nc2cnc(C#N)cn2)n[nH]1 [Example 19, (S)-5-((5-(2-methoxy-6-(morpholin-2-ylmethoxy)-4-(trifluoromethyl)phenyl)-1H-pyrazol-3-yl)amino)pyrazine-2-carbonitrile]",31.4,–,31.2,91
"COc1cccc(OC[C@H]2CCCCN2)c1-c1cc(Nc2cnc(C#N)cn2)n[nH]1 [Example 33, (R)-5-((5-(2-methoxy-6-(piperidin-2-ylmethoxy)phenyl)-1H-pyrazol-3-yl)amino)pyrazine-2-carbonitrile]",32.4,–,26,97
"N#Cc1cnc(Nc2cc(-c3c(F)cccc3OC[C@H]3CCNC3)[nH]n2)cn1 [Example 54, (S)-5-((5-(2-fluoro-6-(pyrrolidin-3-ylmethoxy)phenyl)-1H-pyrazol-3-yl)amino)pyrazine-2-carbonitrile]",30.7,0.86,16.2,–
"COc1cc(C(F)(F)F)cc(OC[C@H]2CCCNC2)c1-c1cc(Nc2cnc(C#N)cn2)n[nH]1 [Example 45, (S)-5-((5-(2-methoxy-6-(piperidin-3-ylmethoxy)-4-(trifluoromethyl)phenyl)-1H-pyrazol-3-yl)amino)pyrazine-2-carbonitrile]",8.8,1.57,9.5,–
